Measured values published in US20190127456A1, “METHODS OF TREATING IDIOPATHIC PULMONARY FIBROSIS” (FibroGen, Inc., priority 2017, published 2019).

Experiments:
[1] = test system: radiation-induced lung fibrosis; assay: Mouse radiation-induced lung fibrosis model: lung volume by HRCT; format: in vivo; details: 14.5 Gy irradiated mice, treated 8 weeks from week 16, measured at 24 weeks; FIG. 4
Experimental: The objective of this study was to compare the activity of pamrevlumab monotherapy to either pirfenidone or nintedanib alone, and to evaluate the potential for enhanced activity of the combined agents. […] In this study, mice received thoracic irradiation (RT), followed by the therapeutic administration of the agents at 16 weeks post-irradiation when lung remodeling was evident by HRCT. After 8 weeks of drug treatment, lung density and volume were assessed by HRCT, lung function was assessed by blood gas analysis, and mice were sacrificed for histologic and gene expression analysis. C57B1/6 mice were irradiated with 14.5 Gy photons; full thorax, single dose. Treatment with therapeutic agent(s) (pamrevlumab, pirfenidone, and/or nintedanib) was initiated 16 weeks post-irradiation and continued for 8 weeks. Pamrevlumab (FG) was given IP, BIW, at 40 mg/kg; pirfenidone (PF) was given PO in chow, QD, at 300 mg/kg; nintedanib (ND) was given PO in chow, QD, at 100 mg/kg. Treatment with each agent alone, with combinations of two, and with a triple combination were carried out. Controls included non-irradiated mice, mice that were irradiated and not treated, and mice that were irradiated and given human IgG. Endpoint measurements were taken at 24 weeks for HRCT (lung structure), blood gas analysis (lung function), histology and gene expression analysis. […]

[2] = test system: radiation-induced lung fibrosis; assay: Mouse radiation-induced lung fibrosis model: lung function by blood gas analysis; format: in vivo; details: blood gas analysis at 24 weeks, compared to RT with no treatment; data not shown
Experimental: The objective of this study was to compare the activity of pamrevlumab monotherapy to either pirfenidone or nintedanib alone, and to evaluate the potential for enhanced activity of the combined agents. […] In this study, mice received thoracic irradiation (RT), followed by the therapeutic administration of the agents at 16 weeks post-irradiation when lung remodeling was evident by HRCT. After 8 weeks of drug treatment, lung density and volume were assessed by HRCT, lung function was assessed by blood gas analysis, and mice were sacrificed for histologic and gene expression analysis. C57B1/6 mice were irradiated with 14.5 Gy photons; full thorax, single dose. Treatment with therapeutic agent(s) (pamrevlumab, pirfenidone, and/or nintedanib) was initiated 16 weeks post-irradiation and continued for 8 weeks. Pamrevlumab (FG) was given IP, BIW, at 40 mg/kg; pirfenidone (PF) was given PO in chow, QD, at 300 mg/kg; nintedanib (ND) was given PO in chow, QD, at 100 mg/kg. Treatment with each agent alone, with combinations of two, and with a triple combination were carried out. Controls included non-irradiated mice, mice that were irradiated and not treated, and mice that were irradiated and given human IgG. […] The effect of the treatments on lung function was assessed by blood gas analysis (data not shown).

[3] = test system: fibrosis genes in irradiated lung; assay: Microarray analysis of mRNA transcripts in irradiated lung; format: in vivo, mouse
Experimental: C57B1/6 mice were irradiated with 14.5 Gy photons; full thorax, single dose. Treatment with therapeutic agent(s) (pamrevlumab, pirfenidone, and/or nintedanib) was initiated 16 weeks post-irradiation and continued for 8 weeks. Pamrevlumab (FG) was given IP, BIW, at 40 mg/kg; pirfenidone (PF) was given PO in chow, QD, at 300 mg/kg; nintedanib (ND) was given PO in chow, QD, at 100 mg/kg. Treatment with each agent alone, with combinations of two, and with a triple combination were carried out. Controls included non-irradiated mice, mice that were irradiated and not treated, and mice that were irradiated and given human IgG. Endpoint measurements were taken at 24 weeks for HRCT (lung structure), blood gas analysis (lung function), histology and gene expression analysis.
Microarray analysis of mRNA transcripts of numerous genes at 24 weeks after RT were carried out by standard techniques to compare the expression profiles of irradiated and treated animals to irradiated animals that were not further treated. The results of the later group, RT (control), were used to normalize the expression data from the other groups. Briefly, RNA from 4-7 animals per condition (RT (control), RT+hIgG, RT+FG, RT+ND, RT+PF, RT+FG+ND, RT+FG+PF, RT+ND+PF, RT+FG+ND+PF). Affymetrix 430 2.0 data was used. RT induced changes (≥1.5×, p<0.05) were filtered for treatment dependent correction (>50% correction, p<0.05). 80 RT-induced and 68 RT-suppressed transcripts were normalized at least 50% by one or more treatments. The resulting list was dominated by pamrevlumab-dependent normalization. Functional analysis indicated pamrevlumab treatment preferentially normalized RT genes known to be regulated by TGFβ and TNF.

IPF = assay: Phase two study in IPF patients: St. George's Respiratory Questionnaire (SGRQ); format: in vivo, human; details: 48 weeks treatment, compared with placebo, FIGS. 5A-5D
Experimental: (§1) A double-blind, placebo-controlled Phase two study was conducted in which 103 patients, randomized (1:1) to receive pamrevlumab or placebo, were treated for 48 weeks. Patients' self-administered the Saint George's Respiratory Questionnaire (SGRQ) to assess changes in health-related quality of life parameters over the course of the study. This questionnaire was developed for patients with chronic airflow limitation and the results correlate well with established measures of symptom level, disease activity and disability. Patients completed the SGRQ on Day 1 (baseline) and every 12 weeks thereafter during the 48-week treatment period. The SGRQ comprises three domains (symptoms, activity, and impact) with the score for each domain ranging from 0 to 100, with higher scores indicating worse health-related quality of life (Jones P W, et al. Respir Med 1991; 85:Suppl B:25-31; Barr J T et al. Clin Ther 2000; 22:1121-45).

[4] = Phase two study in IPF patients: treatment emergent adverse events; format: in vivo, human; details: Phase two trial, 48 weeks
Experimental: as §1
Patients in the Phase two clinical trial described above in Example 2 were monitored for the occurrence of treatment emergent adverse events. The percentage of patients treated with an anti-CTGF antibody (pamrevlumab) that experienced diarrhea was 16.0% compared to 7.5% for placebo treated patients. The percentage of patients treated with pamrevlumab that experienced nausea was 14.0% compared to 13.2% for placebo treated patients. […]

[5] = irradiated mouse lung, 24 weeks after RT, 8 weeks treatment, RT fold change 0.4

Question: With pamrevlumab as the substance, how does the “radiation-induced lung volume decrease” value [1] read?
Answer: significantly inhibited radiation-induced lung volume decrease from baseline

Question: And the O2 saturation [2]?
Answer: normalized O2 saturation

Question: And the “% Normalization of gene expression, Igfbp5” value ([3]; irradiated mouse lung, 24 weeks after RT, 8 weeks treatment, RT fold change 0.3)?
Answer: 70%

Question: And the “% Normalization of gene expression, Abca3” value [3, 5]?
Answer: 75%

Question: And the “% Normalization of gene expression, Gdf2” value [3, 5]?
Answer: 68%

Question: What about the “% Normalization of gene expression, Cx3cl1” value ([3]; irradiated mouse lung, 24 weeks after RT, 8 weeks treatment, RT fold change 0.5) of the same substance?
Answer: 57%

Question: And the “% Normalization of gene expression, Retnla” value ([3]; irradiated mouse lung, 24 weeks after RT, 8 weeks treatment, RT fold change 2.0)?
Answer: 43%

Question: And the “% Normalization of gene expression, Nt5e” value ([3]; irradiated mouse lung, 24 weeks after RT, 8 weeks treatment, RT fold change 2.1)?
Answer: 53%

Question: What about the “% Normalization of gene expression, Plat” value ([3]; irradiated mouse lung, 24 weeks after RT, 8 weeks treatment, RT fold change 2.2) of the same substance?
Answer: 51%

Question: What about the “% Normalization of gene expression, Ccr2” value ([3]; irradiated mouse lung, 24 weeks after RT, 8 weeks treatment, RT fold change 2.4) of the same substance?
Answer: 37%

Question: And the “% Normalization of gene expression, Igfbp7” value ([3]; irradiated mouse lung, 24 weeks after RT, 8 weeks treatment, RT fold change 2.6)?
Answer: 50%

Question: And the “% Normalization of gene expression, Cdkn2a” value ([3]; irradiated mouse lung, 24 weeks after RT, 8 weeks treatment, RT fold change 2.7)?
Answer: 35%

Question: And the “% Normalization of gene expression, Apln” value ([3]; irradiated mouse lung, 24 weeks after RT, 8 weeks treatment, RT fold change 5.3)?
Answer: 59%

Question: And the “% Normalization of gene expression, Wisp1” value ([3]; irradiated mouse lung, 24 weeks after RT, 8 weeks treatment, RT fold change 6.9)?
Answer: 52%

Question: And the “% Normalization of gene expression, Wisp1” value ([3]; irradiated mouse lung, 24 weeks after RT, 8 weeks treatment, RT fold change 11.9)?
Answer: 54%

Question: What about the “normalization of fibrosis-related transcripts” value ([3]; microarray at 24 weeks after RT, monotherapies compared) of the same substance?
Answer: normalized more fibrosis-related transcripts than other monotherapies

Question: What about the “SGRQ all domains (symptoms, activity, impact) and total score, change from baseline” value (IPF) of the same substance?
Answer: improvement (lower values)

Question: What about the “percentage of patients that experienced diarrhea” value ([4]; placebo 7.5%) of the same substance?
Answer: 16.0%

Question: What about the “percentage of patients that experienced nausea” value ([4]; placebo 13.2%) of the same substance?
Answer: 14.0%
